From US20220160608A1, “PEPTIDE FOR REDUCING HAIR LOSS AND PROMOTING HAIR GROWTH, AND COSMETIC COMPOSITION AND PHARMACEUTICAL COMPOSITION COMPRISING SAME” (INCOSPHARM CORPORATION, priority 2019, published 2022)

B1: peptide of SEQ ID NO: 5 (serine-cysteine-arginine-isoleucine-glutamine, SCRIQ) (peptide)
peptide: SCRIQ
B2: DKK-1: recombinant protein, potent antagonist of the Wnt/β-catenin signaling pathway, ligand of LRP5/6 (protein)
chain: TLNSVLNSNAIKNLPPPLGGAAGHPGSAVSAAPGILYPGGNKYQTIDNYQPYPCAEDEECGTDEYCASPTRGGDAGVQICLACRKRRKRCMRHAMCCPGNYCKNGICVSSDQNHFRGEIEETITESFGNDHSTLDGYSRRTTLSSKMYHTKGQEGSVCLRSSDCASGLCCARHFWSKICKPVLKEGQVCTKHRRKGSHGLEIFQRCYCGEGLSCRIQKDHHQASNSSRLHTCQRH
B3: peptide of SEQ ID NO: 10 (arginine-isoleucine-proline, RIP) (peptide)
peptide: RIP

Columns and labels:
LRP5 = LRP5 (human, UniProt O75197 32-1615); assay: cell-based or functional assay
LRP5, sequence (O75197 32-1615): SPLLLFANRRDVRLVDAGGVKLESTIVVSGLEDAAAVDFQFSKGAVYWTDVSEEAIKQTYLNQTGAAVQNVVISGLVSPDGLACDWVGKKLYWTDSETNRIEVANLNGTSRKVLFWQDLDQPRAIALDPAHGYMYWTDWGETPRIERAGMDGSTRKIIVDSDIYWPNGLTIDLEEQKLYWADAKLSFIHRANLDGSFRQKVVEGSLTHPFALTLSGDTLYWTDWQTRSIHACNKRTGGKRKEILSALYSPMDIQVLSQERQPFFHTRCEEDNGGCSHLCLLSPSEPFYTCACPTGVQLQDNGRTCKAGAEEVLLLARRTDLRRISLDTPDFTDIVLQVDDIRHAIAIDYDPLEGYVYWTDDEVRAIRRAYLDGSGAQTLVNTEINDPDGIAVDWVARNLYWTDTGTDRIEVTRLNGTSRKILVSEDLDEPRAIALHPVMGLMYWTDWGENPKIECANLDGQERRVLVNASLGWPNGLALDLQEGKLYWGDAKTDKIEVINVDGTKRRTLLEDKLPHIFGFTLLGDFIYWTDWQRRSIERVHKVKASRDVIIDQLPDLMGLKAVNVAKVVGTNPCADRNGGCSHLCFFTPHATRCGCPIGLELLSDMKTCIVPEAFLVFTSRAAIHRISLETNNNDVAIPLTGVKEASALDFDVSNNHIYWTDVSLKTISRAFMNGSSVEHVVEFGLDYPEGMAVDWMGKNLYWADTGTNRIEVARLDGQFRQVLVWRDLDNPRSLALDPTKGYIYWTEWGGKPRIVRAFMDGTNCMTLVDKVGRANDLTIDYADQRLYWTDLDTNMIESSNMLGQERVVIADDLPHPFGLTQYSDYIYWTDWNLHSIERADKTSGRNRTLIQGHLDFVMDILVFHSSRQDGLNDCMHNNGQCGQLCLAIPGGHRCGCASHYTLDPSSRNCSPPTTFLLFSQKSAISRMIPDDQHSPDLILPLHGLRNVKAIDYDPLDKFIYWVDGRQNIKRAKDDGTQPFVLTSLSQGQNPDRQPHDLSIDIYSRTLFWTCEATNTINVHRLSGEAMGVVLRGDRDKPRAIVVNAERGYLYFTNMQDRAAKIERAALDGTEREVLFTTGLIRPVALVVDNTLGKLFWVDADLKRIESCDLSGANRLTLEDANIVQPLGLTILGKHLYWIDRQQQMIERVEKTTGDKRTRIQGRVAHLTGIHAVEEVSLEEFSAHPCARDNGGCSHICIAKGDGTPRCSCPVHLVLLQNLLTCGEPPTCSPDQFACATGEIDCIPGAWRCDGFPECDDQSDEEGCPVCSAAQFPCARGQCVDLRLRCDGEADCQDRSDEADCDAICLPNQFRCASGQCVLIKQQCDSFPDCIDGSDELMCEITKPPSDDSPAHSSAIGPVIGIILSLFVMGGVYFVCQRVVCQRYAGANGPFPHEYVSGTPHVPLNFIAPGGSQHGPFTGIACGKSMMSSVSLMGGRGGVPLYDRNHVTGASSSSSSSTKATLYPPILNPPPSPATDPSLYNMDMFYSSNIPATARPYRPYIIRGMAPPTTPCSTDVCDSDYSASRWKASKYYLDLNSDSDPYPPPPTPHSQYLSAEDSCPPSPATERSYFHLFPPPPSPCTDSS

LRP6 = LRP6 (human, UniProt O75581 20-1613); assay: cell-based or functional assay
LRP6, sequence (O75581 20-1613): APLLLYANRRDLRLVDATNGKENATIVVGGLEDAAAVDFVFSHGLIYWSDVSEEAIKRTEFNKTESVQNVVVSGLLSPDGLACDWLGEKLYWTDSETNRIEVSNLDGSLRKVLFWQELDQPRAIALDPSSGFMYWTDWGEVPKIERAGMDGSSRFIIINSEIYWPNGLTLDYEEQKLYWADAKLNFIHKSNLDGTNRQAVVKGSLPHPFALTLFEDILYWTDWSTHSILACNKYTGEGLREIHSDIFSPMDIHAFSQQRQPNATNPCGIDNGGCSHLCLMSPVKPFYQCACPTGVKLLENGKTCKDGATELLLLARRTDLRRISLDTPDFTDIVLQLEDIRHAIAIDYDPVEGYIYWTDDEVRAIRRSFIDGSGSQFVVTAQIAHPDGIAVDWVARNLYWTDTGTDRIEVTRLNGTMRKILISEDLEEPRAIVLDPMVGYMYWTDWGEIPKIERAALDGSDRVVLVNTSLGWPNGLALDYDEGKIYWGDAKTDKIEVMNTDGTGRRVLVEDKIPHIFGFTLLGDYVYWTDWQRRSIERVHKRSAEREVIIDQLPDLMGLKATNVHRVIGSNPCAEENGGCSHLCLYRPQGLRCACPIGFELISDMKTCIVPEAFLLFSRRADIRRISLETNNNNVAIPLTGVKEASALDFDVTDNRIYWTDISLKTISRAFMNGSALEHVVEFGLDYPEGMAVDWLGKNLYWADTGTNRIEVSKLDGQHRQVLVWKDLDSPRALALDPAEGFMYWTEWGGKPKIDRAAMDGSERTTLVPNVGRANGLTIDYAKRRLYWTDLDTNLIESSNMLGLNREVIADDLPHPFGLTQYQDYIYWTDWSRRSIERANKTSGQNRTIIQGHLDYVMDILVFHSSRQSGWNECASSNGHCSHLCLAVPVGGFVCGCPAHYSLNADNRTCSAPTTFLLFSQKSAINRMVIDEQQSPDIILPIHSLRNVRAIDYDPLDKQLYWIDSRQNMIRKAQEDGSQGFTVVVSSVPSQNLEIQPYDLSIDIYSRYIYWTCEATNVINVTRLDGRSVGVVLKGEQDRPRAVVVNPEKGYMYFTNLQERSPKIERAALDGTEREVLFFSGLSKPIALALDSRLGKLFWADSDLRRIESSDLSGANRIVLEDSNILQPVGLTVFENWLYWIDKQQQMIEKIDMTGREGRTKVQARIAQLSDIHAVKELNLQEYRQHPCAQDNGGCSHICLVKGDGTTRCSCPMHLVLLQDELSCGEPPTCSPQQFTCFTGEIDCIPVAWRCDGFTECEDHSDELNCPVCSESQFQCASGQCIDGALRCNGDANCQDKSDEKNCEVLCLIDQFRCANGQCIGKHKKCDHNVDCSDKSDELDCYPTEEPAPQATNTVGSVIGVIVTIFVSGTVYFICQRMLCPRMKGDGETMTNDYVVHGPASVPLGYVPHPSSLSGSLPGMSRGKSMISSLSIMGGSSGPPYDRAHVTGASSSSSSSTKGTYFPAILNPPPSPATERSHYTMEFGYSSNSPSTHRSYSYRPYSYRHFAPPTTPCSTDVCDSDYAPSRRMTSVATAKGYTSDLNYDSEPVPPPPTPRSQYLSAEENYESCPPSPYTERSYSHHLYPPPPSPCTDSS

[1] = test system: growth hormones VEGF, IGF-I, FGF10; assay: Western blot for expression of hair-related growth hormone proteins in HFDPCs; type: cell-based, human; settings: 10 or 40 μM respectively, 48 hours
Description: Specifically, human follicular dermal papilla cells (HFDPCs) were uniformly plated with western blot experimental method at the number of 1×10^5 cells in a 6-well plate and cultured in an incubator in DMEM (Dulbecco's Modified Eagle Media, Gibco BRL) for 24 hours at 37° C. under 5% CO2 conditions. […] Thereafter, 1 ml of each dilution solution was added in each well containing 1 ml of medium, and incubated for 48 hours. After the culture was completed, the medium was removed and the cells were disrupted with SDS sample buffer, followed by separating each protein on SDS-PAGE gel electrophoresis, transferring to a polyvinylidene fluoride (PVDF) membrane, and then removing non-specific binding using a blocking buffer.

FGF1 and FGF7 = assay: RT-PCR for FGF1 and FGF7 gene expression in human dermal papilla cells; type: cell-based; settings: 10 or 40 μM
From the text: (§1) After completion of the culture, the cells were disrupted with Trizol (Ambion), total mRNA was collected with chloroform/isopropanol, and cDNA was synthesized with reverse transcriptase.

MMP-2 and ALP = assay: RT-PCR for MMP-2 and ALP gene expression in human dermal papilla cells; type: cell-based; settings: compared to the control group
Description: as §1
RT-PCR (Thermal Cycler, Bio-rad) was performed using primers specific for MMP-2 and ALP, and the amplified product was analyzed by agarose gel electrophoresis, and the results are shown in (a) of FIG. 6.

[2] = test system: Wnt/β-catenin signaling pathway; settings: HFDPCs; for expression of p-GSK3β protein / expression of β-catenin protein: Western blot, compared to control group not treated with the peptide; for expression of active β-catenin protein, concentration screening: all concentrations from 0.1 μM to 100 μM (SEQ ID NO: 5) or 50 μM (SEQ ID NO: 10), effect not concentration-dependent
Description: Human follicular dermal papilla cells (HFDPCs) were uniformly plated at the number of 1×10^5 or 5×10^4 cells in a 6-well plate and cultured in an incubator in DMEM (Dulbecco's Modified Eagle Media, Gibco BRL) for 24 hours at 37° C. under 5% CO2 conditions. […] After adding 1 ml of each dilution to each well containing 1 ml of the medium the cells were incubated for a certain period of time. After the culture was completed, the medium was removed, the cells were disrupted with SDS sample buffer. Each protein was separated by SDS-PAGE gel electrophoresis and transferred to a polyvinylidene fluoride (PVDF) membrane, and then non-specific binding was eliminated using a blocking buffer.

[3] = test system: p21 (cyclin-dependent kinase inhibitor 1a, Cdkn1a); settings: HFDPCs, Western blot, compared to the control group
Description: Specifically, human follicular dermal papilla cells (HFDPCs) were uniformly plated with western blot experimental method at the number of 1×10^5 cells in a 6-well plate and cultured in an incubator in DMEM (Dulbecco's Modified Eagle Media, Gibco BRL) for 24 hours at 37° C. under 5% CO2 conditions. The peptides of SEQ ID NO: 5 and SEQ ID NO: 10 of the present invention were dissolved in water at a concentration of 10 mM to obtain a concentrate, which was diluted with a medium to an optimal concentration of 10 or 40 μM, respectively. Thereafter, 1 ml of each dilution solution was added in each well containing 1 ml of medium, and incubated for 48 hours. After the culture was completed, the medium was removed and the cells were disrupted with SDS sample buffer, followed by separating each protein on SDS-PAGE gel electrophoresis, transferring to a polyvinylidene fluoride (PVDF) membrane, and then removing non-specific binding using a blocking buffer.
In order to analyze whether p21 may be inhibited by treatment with peptides of SEQ ID NO: 5 and SEQ ID NO: 10, Western blot for an expression of p21 protein was performed.
After transferring to a PVDF membrane (polyvinylidene fluoride), non-specific binding was eliminated using a blocking buffer.

human hair follicles = settings: SEQ ID NO: 5 100 μM, SEQ ID NO: 10 16.6 μM; 7 or 10 days culture; compared to IGF-1 (10 ng/ml) or Minoxidil (10 μM) positive control
Description: After separating the surrounding tissues, the hair follicles isolated from the human scalp tissues were stored in Earle's balanced salts solution (EBSS; SigmaAldrich). The hair follicles in anagen phase were carefully separated under a microscope and then used in the experiment. The isolated hair follicles were cultured in Williams medium E (Gibco, Grand Island, N.Y., USA) at 37° C., 5% CO2 and 95% air with an addition of 2 mM L-glutamine (Gibco, NY, USA), 10 μg/ml insulin (SigmaAldrich), 10 ng/ml hydrocortisone (SigmaAldrich), 100 Unit/ml penicillin and 100 μg/ml streptomycin. […] At this time, as a positive control group, Minoxidil (10 μM) or IGF-1 (10 ng/ml) was treated.

[4] = test system: Wnt/β-catenin signaling pathway inhibited by DKK-1; assay: Inhibition of DKK-1 activity: reactivation of Wnt/β-catenin signaling inhibited by recombinant DKK-1 (Western blot, HFDPCs); settings: for recovery (increase) of expression level of non-phospho (active) β-catenin: peptide treated simultaneously with recombinant DKK-1
Description: Specifically, human follicular dermal papilla cells (HFDPCs) were uniformly plated at the number of 5×10^4 cells in a 12-well plate and cultured in an incubator in DMEM (Dulbecco's Modified Eagle Media, Gibco BRL) for 24 hours at 37° C. under 5% CO2 conditions. After culturing, each well was treated with the recombinant protein DKK-1 to inhibit the Wnt/β-catenin signaling pathway, and further treated with the peptides of SEQ ID NO: 5 and SEQ ID NO: 10 of the present invention at appropriate concentrations, followed by culturing for a certain period of time.
After the culture was completed, the medium was removed, the cells were disrupted with SDS sample buffer. Each protein was separated by SDS-PAGE gel electrophoresis and transferred to a PVDF membrane (polyvinylidene fluoride), and then non-specific binding was eliminated using a blocking buffer.

Molecule	expression of FGF10 protein [1]	expression of IGF-I protein [1]	expression of VEGF protein [1]	expression of FGF1 gene (FGF1 and FGF7)	expression of FGF7 gene (FGF1 and FGF7)	gene expression of ALP (MMP-2 and ALP)	gene expression of MMP-2 (MMP-2 and ALP)	expression of p-GSK3β protein [2]	expression of β-catenin protein [2]	expression of active β-catenin protein, concentration screening [2]	p21 protein expression [3]	hair shaft growth (length of hair shaft) (human hair follicles)	recovery (increase) of expression level of non-phospho (active) β-catenin [4]	expression level of non-phospho (active) β-catenin in HFDPCs treated with recombinant DKK-1 (western blot), recovery (LRP5)	expression level of non-phospho (active) β-catenin in HFDPCs treated with recombinant DKK-1 (western blot), recovery (LRP6)	also measured
recombinant protein DKK-1 (Dickkopf-1) (from UniProt O94907 32-266) (ligand)																expression level of non-phospho(active) β-catenin in HFDPCs (western blot), decrease against untreated control (LRP5): 24%; expression level of non-phospho(active) β-catenin in HFDPCs (western blot), decrease against untreated control (LRP6): 24%
arginine-isoleucine-proline [SEQ ID NO: 10]	increased	increased	increased	increased	increased	increased	increased	significantly increased	significantly increased	increased	significantly reduced	superior hair shaft growth	~31%			
serine-cysteine-arginine-isoleucine-glutamine [SEQ ID NO: 5]	increased	increased	increased	increased	increased	increased	increased	significantly increased	significantly increased	increased	significantly reduced	superior hair shaft growth	about 10%			
B1														~10%	~10%	
B2																decrease of expression level of non-phospho(active) β-catenin ([4]; control group treated with recombinant protein DKK-1): about 24%
B3														~31%	~31%	
